In patent US9029389B2 (Institut Pasteur Korea, priority 2011, dated 2015):

Target: T1, Human 5-lipoxygenase (Homo sapiens, UniProt P09917)
T1 construct: purchased Cayman 60402; host or cells: insect cells
T1 sequence (P09917 1-674): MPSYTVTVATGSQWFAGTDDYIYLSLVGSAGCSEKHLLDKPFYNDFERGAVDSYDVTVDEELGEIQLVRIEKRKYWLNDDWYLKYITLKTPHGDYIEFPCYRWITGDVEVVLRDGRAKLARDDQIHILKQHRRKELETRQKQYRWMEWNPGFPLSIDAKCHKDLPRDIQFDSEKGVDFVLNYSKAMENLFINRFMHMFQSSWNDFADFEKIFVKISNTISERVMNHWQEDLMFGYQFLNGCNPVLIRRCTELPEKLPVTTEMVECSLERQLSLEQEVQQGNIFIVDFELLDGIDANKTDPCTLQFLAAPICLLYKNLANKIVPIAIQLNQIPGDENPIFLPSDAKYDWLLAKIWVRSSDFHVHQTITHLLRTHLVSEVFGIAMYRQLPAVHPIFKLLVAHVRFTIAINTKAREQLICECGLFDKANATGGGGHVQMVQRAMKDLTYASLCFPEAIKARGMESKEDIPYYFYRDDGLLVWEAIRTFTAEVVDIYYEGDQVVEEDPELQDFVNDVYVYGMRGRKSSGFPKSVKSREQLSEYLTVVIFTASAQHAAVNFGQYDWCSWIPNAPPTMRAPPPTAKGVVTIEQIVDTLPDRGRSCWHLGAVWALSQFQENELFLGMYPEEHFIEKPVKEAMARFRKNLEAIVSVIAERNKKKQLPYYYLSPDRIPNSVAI
Experiment: Activity of compounds against 5-LO enzyme (LTB4 measurement and/or fluorescence method)
Format: biochemical
Conditions: for inhibition at 10 µM: 5-LO, single concentration of 10 uM in duplicate; for IC50: 6 or 11 point dose response in duplicate
In short: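 Insect-cell human 5-LO preincubated 15 min at RT with compound (pH 7.4, 2 mM CaCl2, 0.1 mM ATP, 1% DMSO), then 3 uM arachidonic acid for 5 min at 37 °C; LTB4 quantified by EIA and/or LC/MS/MS. Alternatively, fluorescence of 5-HpETE via H2DCFDA, 100 uM ATP, 3 uM arachidonic acid, 5 min, RT; single 10 uM screen then 6- or 11-point IC50.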

SMILES	inhibition at 10 µM [%]	IC50 [µM]
CCc1nc2cc(Cl)ccn2c1C(=O)NCc1ccc2[nH]c(CN3CCOCC3)nc2c1 [compound 196, 7-Chloro-2-ethyl-N-((2-(morpholinomethyl)-1H-benzo[d]imidazol-5-yl)methyl)imidazo[1,2-a]pyridine-3-carboxamide]	< 40	
Cc1nc2ccccn2c1C(=O)Nc1ccncc1 [compound 11, 2-Methyl-N-(pyridin-4-yl)imidazo[1,2-a]pyridine-3-carboxamide]	< 40	
Cc1nc2cccc(C)n2c1C(=O)NCc1ccccc1 [compound 34, N-Benzyl-2,5-dimethylimidazo[1,2-a]pyridine-3-carboxamide]	40 to 69	
CCc1nc2ccc(Cl)cn2c1C(=O)NCc1ccc(N2CCC(NC(=O)Cc3ccc(F)cc3)CC2)cc1 [compound 316, 6-chloro-2-ethyl-N-(4-(4-(2-(4-fluorophenyl)acetamido)piperidin-1-yl)benzyl)imidazo[1,2-a]pyridine-3-carboxamide]	< 40	
CCc1nc2ccc(Cl)cn2c1C(=O)N1CCC(OCc2ccc(OC)cc2)CC1 [compound 335, (6-chloro-2-ethylimidazo[1,2-a]pyridin-3-yl)(4-((4-methoxybenzyl)oxy)piperidin-1-yl)methanone]	< 40	
CCc1nc2ccc(Cl)cn2c1C(=O)NCc1ccn(-c2ccc(C(F)(F)F)cc2)n1 [compound 151, 6-Chloro-2-ethyl-N-((1-(4-(trifluoromethyl)phenyl)-1H-pyrazol-3-yl)methyl)imidazo[1,2-a]pyridine-3-carboxamide]	< 40	
Cc1nc2c(F)cccn2c1C(=O)NCc1ccccc1 [compound 35, N-Benzyl-8-fluoro-2-methylimidazo[1,2-a]pyridine-3-carboxamide]	< 40	
CCOC(=O)C1CCN(c2ccc(CNC(=O)c3c(CC)nc4cc(Cl)ccn34)cc2)CC1 [compound 270, Ethyl 1-(4-((7-chloro-2-ethylimidazo[1,2-a]pyridine-3-carboxamido)methyl)phenyl)piperidine-4-carboxylate]	40 to 69	
CCc1nc2ccc(Cl)cn2c1C(=O)NCc1ccc(N2CCCCC2)cc1 [compound 74, 6-Chloro-2-ethyl-N-(4-(piperidin-1-yl)benzyl)imidazo[1,2-a]pyridine-3-carboxamide]	< 40	
CCc1nc2cc(Cl)ccn2c1C(=O)OCc1ccc(Oc2ccc(F)cc2)cc1 [compound 203]	< 40	
CCc1nc2ccc(C)cn2c1C(=O)NCc1ccc(Oc2ccccc2)cc1 [compound 58, 2-Ethyl-6-methyl-N-(4-phenoxybenzyl)imidazo[1,2-a]pyridine-3-carboxamide]	> 69	1 to 20
CCc1nc2ccccn2c1C(=O)NCc1ccc2c(ccn2C)c1 [compound 50, 2-Ethyl-N-((1-methyl-1H-indol-5-yl)methyl)imidazo[1,2-a]pyridine-3-carboxamide]	< 40	
CCCc1nc2ccccn2c1C(=O)NCc1ccccc1 [compound 37, N-Benzyl-2-propylimidazo[1,2-a]pyridine-3-carboxamide]	< 40	
CCc1nc2cc(Br)ccn2c1C(=O)NCc1ccc(OC(F)(F)F)cc1 [compound 281, 7-Bromo-2-ethyl-N-(4-(trifluoromethoxy)benzyl)imidazo[1,2-a]pyridine-3-carboxamide]	40 to 69	
CCc1nc2ccc(Cl)cn2c1C(=O)NCc1ccc(N2CCCCCC2)cc1 [compound 192, N-(4-(Azepan-1-yl)benzyl)-6-chloro-2-ethylimidazo[1,2-a]pyridine-3-carboxamide]	40 to 69	
CCc1nc2cc(Cl)ccn2c1-c1nnc(Cc2ccc(F)cc2)o1 [compound 348, 2-(7-chloro-2-ethylimidazo[1,2-a]pyridin-3-yl)-5-(4-fluorobenzyl)-1,3,4-oxadiazole]	< 40	
CCc1nc2ccc(Cl)cn2c1C(=O)NCc1ccc(N2CCC(C(=O)c3ccc(OC(F)(F)F)cc3)CC2)cc1 [compound 324, 6-chloro-2-ethyl-N-(4-(4-(4-(trifluoromethoxy)benzoyl)piperidin-1-yl)benzyl)imidazo[1,2-a]pyridine-3-carboxamide]	> 69	
CCc1nc2cc(Cl)ccn2c1C(=O)NCc1ccc2ccccc2c1 [compound 90, 7-Chloro-2-ethyl-N-(naphthalen-2-ylmethyl)imidazo[1,2-a]pyridine-3-carboxamide]	40 to 69	
CCc1nc2ccc(C)cn2c1C(=O)NCc1ccc2ccn(C)c2c1 [compound 60, 2-Ethyl-6-methyl-N-((1-methyl-1H-indol-6-yl)methyl)imidazo[1,2-a]pyridine-3-carboxamide]	40 to 69	
CCc1nc2ccc(Cl)cn2c1C(=O)N1CCC(OCc2cccc(F)c2)CC1 [compound 336, (6-chloro-2-ethylimidazo[1,2-a]pyridin-3-yl)(4-((3-fluorobenzyl)oxy)piperidin-1-yl)methanone]	< 40	
CCc1nc2ccc(Cl)cn2c1C(=O)NCc1ccc(N2CCC(Oc3ccc(Cl)cc3)CC2)cc1 [compound 166, 6-Chloro-N-(4-(4-(4-chlorophenoxy)piperidin-1-yl)benzyl)-2-ethylimidazo[1,2-a]pyridine-3-carboxamide]	40 to 69	
CCc1nc2cc(N3CCN(c4ccc(F)cc4)CC3)ccn2c1C(=O)NCc1ccc(N2CCOCC2)cc1 [compound 256, 2-Ethyl-7-(4-(4-fluorophenyl)piperazin-1-yl)-N-(4-morpholinobenzyl)imidazo[1,2-a]pyridine-3-carboxamide]	< 40	
Cc1nc2ccccn2c1C(=O)NCc1cccnc1 [compound 5, 2-Methyl-N-(pyridin-3-ylmethyl)imidazo[1,2-a]pyridine-3-carboxamide]	< 40	
CCc1nc2cc(Cl)ccn2c1C(=O)NCc1ccc(-c2ccc(Cl)cc2C(F)(F)F)cc1 [compound 103, 7-Chloro-N-((4′-chloro-2′-(trifluoromethyl)biphenyl-4-yl)methyl)-2-ethylimidazo[1,2-a]pyridine-3-carboxamide]	> 69	1 to 20
CCc1nc2cc(Cl)ccn2c1C(=O)NCc1ccc(N2CCC(COC(F)F)CC2)cc1 [compound 295, 7-Chloro-N-(4-(4-((difluoromethoxy)methyl)piperidin-1-yl)benzyl)-2-ethylimidazo[1,2-a]pyridine-3-carboxamide]	> 69	> 20
CCc1nc2ccc(Cl)cn2c1C(=O)NCc1ccc(OC(C)C)cc1 [compound 65]	< 40	
CCc1nc2cc(Cl)ccn2c1C(=O)NCc1ccc(-c2ccc(C(C)(C)C)cc2)cc1 [compound 114, N-((4′-tert-Butylbiphenyl-4-yl)methyl)-7-chloro-2-ethylimidazo[1,2-a]pyridine-3-carboxamide]	40 to 69	
CCc1nc2c(OC)cccn2c1C(=O)NCc1ccc(N2CCOCC2)cc1 [compound 262, 2-Ethyl-8-methoxy-N-(4-morpholinobenzyl)imidazo[1,2-a]pyridine-3-carboxamide]	< 40	
CCc1nc2cc(Cl)ccn2c1C(=O)NCc1ccc(-c2ccc(OC)cc2)cc1 [compound 113, 7-Chloro-2-ethyl-N-((4′-methoxybiphenyl-4-yl)methyl)imidazo[1,2-a]pyridine-3-carboxamide]	40 to 69	
